Source: ChEMBL document CHEMBL3727356, “Therapeutic compounds and compositions” (2014)

Tests used:
Pyruvate kinase PKLR [1] = target: Pyruvate kinase PKLR (Homo sapiens, UniProt P30613, R532W); test: Activation of PKR R532W mutant (unknown origin) incubated for 60 mins in presence of ADP, PEP and NADH by Spectraax microplate reader based assay
Pyruvate kinase PKLR [2] = target: T1, Pyruvate kinase PKLR (Homo sapiens, UniProt P30613); test: Activation of wild type PKR (unknown origin) incubated for 60 mins in presence of ADP, PEP and NADH by Spectraax microplate reader based assay
T1 sequence (P30613 whole entry): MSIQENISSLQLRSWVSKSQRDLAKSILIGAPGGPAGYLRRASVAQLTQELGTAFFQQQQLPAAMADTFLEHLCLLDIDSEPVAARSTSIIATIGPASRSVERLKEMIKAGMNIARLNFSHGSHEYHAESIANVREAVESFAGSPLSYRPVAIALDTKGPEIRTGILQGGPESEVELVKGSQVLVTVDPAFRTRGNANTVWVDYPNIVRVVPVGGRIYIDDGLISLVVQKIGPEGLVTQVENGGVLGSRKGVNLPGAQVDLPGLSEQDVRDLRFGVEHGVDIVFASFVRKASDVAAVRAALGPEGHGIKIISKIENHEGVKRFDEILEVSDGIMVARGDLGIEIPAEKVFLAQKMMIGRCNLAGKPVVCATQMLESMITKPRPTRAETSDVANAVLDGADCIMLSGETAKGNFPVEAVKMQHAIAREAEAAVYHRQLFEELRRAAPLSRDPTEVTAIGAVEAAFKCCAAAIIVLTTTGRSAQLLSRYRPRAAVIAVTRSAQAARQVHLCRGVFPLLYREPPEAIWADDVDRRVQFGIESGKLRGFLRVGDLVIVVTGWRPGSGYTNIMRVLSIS

Pyruvate kinase PKLR [3] = target: T1, Pyruvate kinase PKLR; test: Activation of wild type PKR (unknown origin) by cell based assay

Chain of Pyruvate kinase PKLR (Homo sapiens, UniProt P30613, R532W) (P30613 whole entry R532W): as the sequence (P30613 whole entry) above, with R532W counted along it

| SMILES | AC50 (Pyruvate kinase PKLR [1]) [nM] | AC50 (Pyruvate kinase PKLR [2]) [nM] | AC50 (Pyruvate kinase PKLR [3]) [nM] |
| --- | --- | --- | --- |
| COc1cccc(CC2(O)CCN(C(=O)c3ccc(NS(=O)(=O)c4cccc5cccnc45)cc3)CC2)c1 | < 100 | < 100 | < 100 |
| O=C(c1ccc(NS(=O)(=O)c2cccc3cccnc23)cc1)N1CCC(O)(CC2CC2(F)F)CC1 (stereo unspecified) | < 100 | < 100 | < 100 |
| O=C(c1ccc(NS(=O)(=O)c2cccc3cccnc23)cc1)N1CCC(O)(c2ccccc2O)CC1 | < 100 |  | < 100 |
| O=C(c1ccc(NS(=O)(=O)c2cc(F)cc3scnc23)cc1)N1CCC(O)(c2ccccc2Cl)CC1 | < 100 | < 100 |  |
| CC(C)CC1(O)CCN(C(=O)c2ccc(NS(=O)(=O)c3cccc(O)c3N)cc2)CC1 |  | < 100 | < 100 |
| O=C(c1ccc(NS(=O)(=O)c2cccc3nccnc23)cc1)N1CCC(O)(c2ccccc2Cl)CC1 | < 100 | < 100 | < 100 |
| CS(=O)(=O)c1cccc(C2(O)CCN(C(=O)c3ccc(NS(=O)(=O)c4cccc5cccnc45)cc3)CC2)c1 |  | < 100 | < 100 |
| O=C(c1ccc(NS(=O)(=O)c2cccc3cccnc23)cc1)N1CCC(O)(Cc2cccc(F)c2F)CC1 | < 100 | < 100 | < 100 |
| O=C(c1ccc(NS(=O)(=O)c2cccc3scnc23)cc1)N1CCC(O)(CC2CC2(F)F)CC1 (stereo unspecified) | < 100 | < 100 |  |
| CC(C)CC1(OC(=O)OCOP(=O)(O)O)CCN(C(=O)c2ccc(NS(=O)(=O)c3cccc4nccnc34)cc2)CC1 |  |  | < 100 |
| Cc1nc(C(=O)N2CCC(O)(c3ccccc3Cl)CC2)ccc1NS(=O)(=O)c1cccc2cccnc12 | < 100 | < 100 |  |
| O=C(c1ccc(NS(=O)(=O)c2cccc3ccc(F)nc23)cc1)N1CCC(O)(c2ccccc2Cl)CC1 | < 100 | < 100 |  |
| O=C(c1ccc(NS(=O)(=O)c2cccc3cccnc23)cc1)N1CCC(CO)(Cc2ccccc2)CC1 | < 100 | < 100 | < 100 |
| CC(C)CC1(O)CCN(C(=O)c2ccc(NS(=O)(=O)c3cccc4snnc34)cc2)CC1 | > 10000 | > 10000 |  |
| CC(F)(F)CCC1(O)CCN(C(=O)c2ccc(NS(=O)(=O)c3cccc4scnc34)cc2)CC1 | < 100 | < 100 |  |
| Nc1c(O)cccc1S(=O)(=O)Nc1ccc(C(=O)N2CCC(O)(c3ccccc3Cl)CC2)cc1 |  | < 100 | < 100 |
| Cc1cccc(CC2(O)CCN(C(=O)c3ccc(NS(=O)(=O)c4cccc5cccnc45)cc3)CC2)c1 | < 100 | < 100 | < 100 |
| O=C(c1ccc(NS(=O)(=O)c2cccc3nccnc23)cc1)N1CCC(O)(c2ccccc2)CC1 |  |  | < 100 |

| SMILES | AC50 (Pyruvate kinase PKLR [1]) [nM] | AC50 (Pyruvate kinase PKLR [2]) [nM] | AC50 (Pyruvate kinase PKLR [3]) [nM] |
| --- | --- | --- | --- |
| O=C(c1ccc(NS(=O)(=O)c2ccc(C(F)(F)F)cc2)cc1)N1CCC(O)(Cc2ccccc2)CC1 | > 10000 | > 10000 |  |
| O=C(c1ccc(NS(=O)(=O)c2cccc3nccnc23)cc1)N1CCC(O)(CCC(F)(F)F)CC1 | < 100 | < 100 |  |
| O=C(c1ccc(NS(=O)(=O)c2cccc3cccnc23)cc1)N1CCC(O)(c2ccccc2)CC1 | < 100 | < 100 | < 100 |
| O=C(c1ccc(NS(=O)(=O)c2cccc3c2OCCO3)cc1)N1CCC(O)(Cc2ccccc2)CC1 | < 100 | < 100 | < 100 |
| O=C(c1ccc(NS(=O)(=O)c2cccc3cccnc23)cc1)N1CCC(O)(c2ccncc2Cl)CC1 | < 100 | < 100 | < 100 |
| O=C(c1ccc(NS(=O)(=O)c2cccc3cccnc23)cc1)N1CCC(O)(c2ccccc2F)CC1 | < 100 | < 100 | < 100 |
| O=C(c1ccc(NS(=O)(=O)c2cccc3scnc23)cc1)N1CCC(O)(CCC(F)=C(F)F)CC1 | < 100 | < 100 |  |
| CC(C)CC1(CO)CCN(C(=O)c2ccc(NS(=O)(=O)c3cccc4nccnc34)cc2)CC1 | < 100 | < 100 |  |
| O=C(c1ccc(NS(=O)(=O)c2cccc3cccnc23)cc1)N1CCC(O)(c2cccnc2C(F)(F)F)CC1 | < 100 | < 100 | < 100 |
| O=C(c1ccc(NS(=O)(=O)c2cccc3cccnc23)cc1)N1CCC(O)(Cc2cccnc2F)CC1 | < 100 | < 100 | < 100 |
| O=C(c1ccc(NS(=O)(=O)c2cccc3cccnc23)cc1)N1CCC(O)(c2cc(F)ccc2Cl)CC1 | < 100 | < 100 | < 100 |
| CC(C)CC1(OC(=O)OCOP(=O)(O)O)CCN(C(=O)c2ccc(NS(=O)(=O)c3cccc4scnc34)cc2)CC1 |  |  | < 100 |
| O=C(c1ccc(NS(=O)(=O)c2cccc3nccnc23)cc1)N1CCC(O)(c2sncc2Cl)CC1 |  |  | < 100 |
| O=C(c1ccc(NS(=O)(=O)c2cccc3cccnc23)c(F)c1)N1CCC(O)(Cc2ccccc2)CC1 | < 100 | < 100 | < 100 |
| Cc1n[nH]c(C)c1CC1(O)CCN(C(=O)c2ccc(NS(=O)(=O)c3cccc4nccnc34)cc2)CC1 | < 100 | < 100 |  |
| O=C(c1ccc(NS(=O)(=O)c2cccc3cccnc23)cc1)N1CCC(O)(Cc2cccc(F)n2)CC1 | < 100 | < 100 | < 100 |
| Cc1cc(C2(O)CCN(C(=O)c3ccc(NS(=O)(=O)c4cccc5nccnc45)cc3)CC2)sn1 | < 100 | < 100 |  |

Further lines, results first:

| AC50 (Pyruvate kinase PKLR [1]) [nM] | AC50 (Pyruvate kinase PKLR [2]) [nM] | AC50 (Pyruvate kinase PKLR [3]) [nM] | SMILES |
| --- | --- | --- | --- |
| < 100 | < 100 |  | CC(F)(F)CCC1(O)CCN(C(=O)c2ccc(NS(=O)(=O)c3cccc4scnc34)cc2OC(F)F)CC1 |
| < 100 |  | < 100 | CC(C)(F)CC1(O)CCN(C(=O)c2ccc(NS(=O)(=O)c3cccc4scnc34)cc2)CC1 |
| < 100 |  | < 100 | Cn1cc(C2(O)CCN(C(=O)c3ccc(NS(=O)(=O)c4cccc5scnc45)cc3)CC2)cn1 |
| < 100 | < 100 |  | COc1ncccc1C1(O)CCN(C(=O)c2ccc(NS(=O)(=O)c3cccc4cccnc34)cc2)CC1 |
| < 100 | < 100 |  | O=C(c1ccc(NS(=O)(=O)c2cccc3scnc23)cc1)N1CCC(O)(c2ccccc2C(F)F)CC1 |
| < 100 | < 100 | < 100 | Cc1cc(C(=O)N2CCC(O)(c3cccc(F)c3F)CC2)ccc1NS(=O)(=O)c1cccc2nccnc12 |
| < 100 | < 100 | < 100 | O=C(c1ccc(NS(=O)(=O)c2cccc3scnc23)cc1)N1CCC(O)(c2cccc(F)c2F)CC1 |
|  | < 100 | < 100 | CC(F)(F)CCC1(O)CCN(C(=O)c2ccc(NS(=O)(=O)c3cccc4nccnc34)cc2)CC1 |
| < 100 | < 100 |  | Cc1n[nH]c(C)c1CC1(O)CCN(C(=O)c2ccc(NS(=O)(=O)c3cccc4scnc34)cc2)CC1 |
| < 100 | < 100 |  | O=C(c1ccc(NS(=O)(=O)c2cccc3scnc23)cc1)N1CCC(O)(Cc2cn[nH]c2)CC1 |
| < 100 | < 100 |  | O=C(c1ccc(NS(=O)(=O)c2cc(F)cc3cccnc23)cc1)N1CCC(O)(c2ccccc2Cl)CC1 |
| < 100 | < 100 |  | O=C(c1ccc(NS(=O)(=O)c2cccc3scnc23)cc1)N1CCC(O)(c2scnc2Cl)CC1 |
| < 100 | < 100 | < 100 | O=C(c1ccc(NS(=O)(=O)c2cccc3cccnc23)cc1)N1CCC(O)(c2ncccc2C(F)(F)F)CC1 |
| < 100 | < 100 |  | O=C(c1ccc(NS(=O)(=O)c2cccc3nccnc23)cc1)N1CCC(O)(Cc2cn[nH]c2)CC1 |
| < 100 | < 100 | < 100 | O=C(c1ccc(NS(=O)(=O)c2cccc3cccnc23)cc1)N1CCC(O)(c2cccc(C(F)(F)F)n2)CC1 |
| < 100 | < 100 |  | Cc1cc(C2(O)CCN(C(=O)c3ccc(NS(=O)(=O)c4cccc5scnc45)cc3)CC2)sn1 |
| < 100 | < 100 | < 100 | O=C(c1ccc(NS(=O)(=O)c2cccc3scnc23)cc1)N1CCC(O)(c2ccccc2Cl)CC1 |
| < 100 | < 100 |  | Cc1noc(C)c1CC1(O)CCN(C(=O)c2ccc(NS(=O)(=O)c3cccc4scnc34)cc2)CC1 |
| > 10000 | > 10000 |  | O=C(c1ccc(NS(=O)(=O)c2cccc3cnccc23)cc1)N1CCC(O)(c2ccccc2)CC1 |
| > 10000 | > 10000 |  | CC(C)CC1(OP(=O)(O)O)CCN(C(=O)c2ccc(NS(=O)(=O)c3cccc4scnc34)cc2)CC1 |
| < 100 | < 100 |  | Nc1nc2c(S(=O)(=O)Nc3ccc(C(=O)N4CCC(O)(CCC(F)(F)F)CC4)cc3)cccc2s1 |
| < 100 | < 100 |  | CC(C)CC1(CO)CCN(C(=O)c2ccc(NS(=O)(=O)c3cccc4scnc34)cc2)CC1 |
| < 100 | < 100 | < 100 | O=C(c1ccc(NS(=O)(=O)c2cccc3cccnc23)cc1Cl)N1CCC(O)(c2ccccc2Cl)CC1 |
| < 100 | < 100 |  | O=C(c1ccc(NS(=O)(=O)c2cccc3cccnc23)c2ccccc12)N1CCC(O)(c2ccccc2Cl)CC1 |
| > 10000 | > 10000 |  | CC(C)(O)CCCC1(O)CCN(C(=O)c2ccc(NS(=O)(=O)c3cccc4nccnc34)cc2)CC1 |
| < 100 | < 100 | < 100 | Cc1cc(NS(=O)(=O)c2cccc3cccnc23)ccc1C(=O)N1CCC(O)(c2ccccc2Cl)CC1 |
| < 100 | < 100 | < 100 | O=C(c1ccc(NS(=O)(=O)c2cccc3cccnc23)cc1)N1CCC(O)(c2cccc(F)c2)CC1 |
| < 100 | < 100 |  | Cc1cc(CC2(O)CCN(C(=O)c3ccc(NS(=O)(=O)c4cccc5nccnc45)cc3)CC2)sn1 |
| < 100 | < 100 | < 100 | Cc1cccnc1C1(O)CCN(C(=O)c2ccc(NS(=O)(=O)c3cccc4cccnc34)cc2)CC1 |
| < 100 | < 100 | < 100 | Cc1ncccc1C1(O)CCN(C(=O)c2ccc(NS(=O)(=O)c3cccc4cccnc34)cc2)CC1 |
